The target of this test is T1, human glucocorticoid receptor (Homo sapiens, UniProt P04150).
T1 construct: purified human recombinant full-length glucocorticoid receptor (2 nM); purchased Invitrogen Part #2893
T1 sequence (P04150 1-777): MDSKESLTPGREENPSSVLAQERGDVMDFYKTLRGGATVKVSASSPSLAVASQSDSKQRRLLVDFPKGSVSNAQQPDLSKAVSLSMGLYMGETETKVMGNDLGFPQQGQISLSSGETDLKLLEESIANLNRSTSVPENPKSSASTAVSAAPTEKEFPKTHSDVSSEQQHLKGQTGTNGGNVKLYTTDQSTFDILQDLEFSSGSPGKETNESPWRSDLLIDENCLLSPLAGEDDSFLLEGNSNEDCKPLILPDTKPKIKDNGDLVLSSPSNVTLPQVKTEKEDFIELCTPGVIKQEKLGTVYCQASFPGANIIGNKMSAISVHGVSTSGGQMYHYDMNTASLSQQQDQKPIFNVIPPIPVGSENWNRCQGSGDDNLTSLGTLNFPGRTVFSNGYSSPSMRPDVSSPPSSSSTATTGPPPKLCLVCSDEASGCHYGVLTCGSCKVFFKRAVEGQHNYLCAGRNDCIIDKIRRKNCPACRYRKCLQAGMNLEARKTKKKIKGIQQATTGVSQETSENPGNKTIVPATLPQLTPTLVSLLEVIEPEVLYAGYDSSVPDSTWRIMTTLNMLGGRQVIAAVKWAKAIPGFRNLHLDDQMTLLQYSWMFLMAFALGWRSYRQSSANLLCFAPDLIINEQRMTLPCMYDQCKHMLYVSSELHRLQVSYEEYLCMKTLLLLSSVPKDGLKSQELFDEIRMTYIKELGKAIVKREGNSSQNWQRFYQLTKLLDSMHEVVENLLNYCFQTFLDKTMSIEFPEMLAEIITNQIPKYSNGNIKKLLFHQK
Nature of the test: Glucocorticoid Receptor Binding Assay (I), fluorescence polarization competitor kit. The note with it: purified human recombinant full-length GR, Fluormone GS Red. On the procedure: Glucocorticoid Receptor Binding Assay (I)^a
In order to assess the affinity of test compounds for the human glucocorticoid receptor, a commercially available kit was used (Glucocorticoid Receptor Competitor Assay Kit, Invitrogen Part #2893). Briefly, purified human recombinant full-length glucocorticoid receptor (2 nM) was mixed with fluorescently labeled glucocorticoid (1 nM Fluormone GS Red) in the presence or absence of test compound. After two hour incubation at room temperature in the dark, the fluorescence polarization (FP) of the samples was measured. The FP of a mixture of receptor, fluorescent probe (i.e. Fluormone GS Red) and 5 μM dexamethasone represented background fluorescence or 100% inhibition, whereas, the FP of the mixture without dexamethasone (but in the presence of vehicle) was taken to be 100% binding. The percentage inhibition of test compounds were then compared to the sample with 5 μM dexamethasone and expressed as % relative binding activity with dexamethasone being 100% and no inhibition is 0%. Test compounds were analyzed in the concentration range from 8.5E-05 μM to 5 μM.
In general terms: Fluorescence polarisation rises when a labelled molecule tumbles more slowly, as on binding a larger partner.

With `CC(C)(C(=O)Nc1nncs1)C(c1cc(F)cc(F)c1)c1ccc(Br)s1` (stereo not shown) [Example 19, 3-(5-bromo-2-thienyl)-3-(3,5-difluorophenyl)-2,2-dimethyl-N-1,3,4-thiadiazol-2-ylpropanamide], the Ki (usually a dissociation constant, usually derived from enzyme kinetics or from competition with a known ligand) turned out to be 2.93 nM.

Regarding `CC(C)Oc1ccc(-c2ccc(C(c3ccccc3)C(C)(C)C(=O)Nc3nncs3)cn2)cc1F` (stereo not shown) [Example 29, 3-(6-(3-fluoro-4-isopropoxyphenyl)-3-pyridinyl)-2,2-dimethyl-3-phenyl-N-1,3,4-thiadiazol-2-ylpropanamide], the Ki was 7.69 nM.

Consider `COc1ccc(-c2ccc(C(c3cccc(F)c3)C(C)(C)C(=O)Nc3nncs3)s2)cc1` (stereo not shown) [Example 35, 3-(3-fluorophenyl)-3-(5-(4-methoxyphenyl)-2-thienyl)-2,2-dimethyl-N-1,3,4-thiadiazol-2-ylpropanamide], for which the Ki is 5.75 nM.

As for `CN(C)C(=O)c1ccc(-c2ccc(C(c3cccc(F)c3)C(C)(C)C(=O)Nc3nncs3)s2)cc1` (stereo not shown) [Example 36, 4-(5-(1-(3-fluorophenyl)-2,2-dimethyl-3-oxo-3-(1,3,4-thiadiazol-2-ylamino)propyl)-2-thienyl)-N,N-dimethylbenzamide], the Ki was determined as 1.46 nM.

As to `CC(C)Oc1ccc(-c2ccc(C(c3cccc(F)c3)C(C)(C)C(=O)Nc3nncs3)s2)cc1F` (stereo not shown) [Example 37, 3-(5-(3-fluoro-4-isopropoxyphenyl)-2-thienyl)-3-(3-fluorophenyl)-2,2-dimethyl-N-1,3,4-thiadiazol-2-ylpropanamide], the Ki is 53.5 nM.

For the compound `CN(C)C(=O)c1ccc(-c2ccc(C(c3ccccc3)C(C)(C)C(=O)Nc3nncs3)s2)cc1` (stereo not shown) [Example 44, 4-(5-(2,2-dimethyl-3-oxo-1-phenyl-3-(1,3,4-thiadiazol-2-ylamino)propyl)-2-thienyl)-N,N-dimethylbenzamide], the Ki was determined as 0.89 nM.

On to `CC(C)(C(=O)Nc1nncs1)C(c1ccccc1)c1ccc(-c2ccc(C(=O)N3CCCCC3)cc2)s1` (stereo not shown) [Example 46, 2,2-dimethyl-3-phenyl-3-(5-(4-(1-piperidinylcarbonyl)phenyl)-2-thienyl)-N-1,3,4-thiadiazol-2-ylpropanamide], for which the Ki is 11.7 nM.

With `CCN(CC)C(=O)c1ccc(-c2ccc(C(c3ccccc3)C(C)(C)C(=O)Nc3nncs3)s2)cc1Cl` (stereo not shown) [Example 48, 2-chloro-4-(5-(2,2-dimethyl-3-oxo-1-phenyl-3-(1,3,4-thiadiazol-2-ylamino)propyl)-2-thienyl)-N,N-diethylbenzamide], the Ki stood at 17.4 nM.

With `CCN(CC)C(=O)c1ccc(-c2ccc(C(c3ccccc3)C(C)(C)C(=O)Nc3nncs3)s2)cc1` (stereo not shown) [Example 49, 4-(5-(2,2-dimethyl-3-oxo-1-phenyl-3-(1,3,4-thiadiazol-2-ylamino)propyl)-2-thienyl)-N,N-diethylbenzamide], the Ki came to 3.58 nM.

As to `CCCN(CCC)C(=O)c1ccc(-c2ccc(C(c3ccccc3)C(C)(C)C(=O)Nc3nncs3)s2)cc1` (stereo not shown) [Example 51, 4-(5-(2,2-dimethyl-3-oxo-1-phenyl-3-(1,3,4-thiadiazol-2-ylamino)propyl)-2-thienyl)-N,N-dipropylbenzamide], the Ki was 79.7 nM.

Turning to `COC(=O)c1ccc(-c2ccc(C(c3ccccc3)C(C)(C)C(=O)Nc3nncs3)s2)cc1F` (stereo not shown) [Example 53, methyl 4-(5-(2,2-dimethyl-3-oxo-1-phenyl-3-(1,3,4-thiadiazol-2-ylamino)propyl)-2-thienyl)-2-fluorobenzoate], the Ki was 152 nM.

On to `CC(C)(C(=O)Nc1nncs1)C(c1ccccc1)c1ccc(-c2ccc(C(=O)N3CCC(F)(F)CC3)cc2)s1` (stereo not shown) [Example 55, 3-(5-(4-((4,4-Difluoro-1-piperidinyl)carbonyl)phenyl)-2-thienyl)-2,2-dimethyl-3-phenyl-N-1,3,4-thiadiazol-2-ylpropanamide], for which the Ki stood at 36.8 nM.

Take `CC(C)(C(=O)Nc1nncs1)[C@H](c1cccc(F)c1)c1ccc(Br)s1` [Example 56, (3S)-3-(5-bromo-2-thienyl)-3-(3-fluorophenyl)-2,2-dimethyl-N-1,3,4-thiadiazol-2-ylpropanamide]: the Ki amounted to 1.21 nM.

On to `CC(C)(C(=O)Nc1nncs1)[C@@H](c1cccc(F)c1)c1ccc(Br)s1` [Example 57, (3R)-3-(5-bromo-2-thienyl)-3-(3-fluorophenyl)-2,2-dimethyl-N-1,3,4-thiadiazol-2-ylpropanamide], for which the Ki is 2.39 nM.

As to `CN(C)C(=O)c1ccc(-c2ccc([C@@H](c3cccc(F)c3)C(C)(C)C(=O)Nc3nncs3)s2)cc1` [Example 58, 4-(5-((1S)-1-(3-fluorophenyl)-2,2-dimethyl-3-oxo-3-(1,3,4-thiadiazol-2-ylamino)propyl)-2-thienyl)-N,N-dimethylbenzamide], the Ki was 29.2 nM.

On to `CC(C)(C(=O)Nc1nncs1)[C@H](c1cccc(F)c1)c1ccc(-c2ccc(C(=O)N3CCOCC3)cc2)s1` [Example 59, (3S)-3-(3-fluorophenyl)-2,2-dimethyl-3-(5-(4-(4-morpholinylcarbonyl)phenyl)-2-thienyl)-N-1,3,4-thiadiazol-2-ylpropanamide], for which the Ki was found to be 66.9 nM.

Take `CN(C)C(=O)c1ccc(-c2ccc([C@@H](c3cccc(F)c3)C(C)(C)C(=O)Nc3nncs3)s2)cc1Cl` [Example 60, 2-chloro-4-(5-((1S)-1-(3-fluorophenyl)-2,2-dimethyl-3-oxo-3-(1,3,4-thiadiazol-2-ylamino)propyl)-2-thienyl)-N,N-dimethylbenzamide]: the Ki stood at 161 nM.

Consider `CC(C)(C(=O)Nc1nncs1)[C@H](c1cccc(F)c1)c1ccc(-c2ccc(C(=O)N3CCOCC3)c(Cl)c2)s1` [Example 61, (3S)-3-(5-(3-chloro-4-(4-morpholinylcarbonyl)phenyl)-2-thienyl)-3-(3-fluorophenyl)-2,2-dimethyl-N-1,3,4-thiadiazol-2-ylpropanamide], for which the Ki worked out at 101 nM.

With `CCN(C)C(=O)c1ccc(-c2ccc([C@@H](c3cccc(F)c3)C(C)(C)C(=O)Nc3nncs3)s2)cc1` [Example 62, N-ethyl-4-(5-((1S)-1-(3-fluorophenyl)-2,2-dimethyl-3-oxo-3-(1,3,4-thiadiazol-2-ylamino)propyl)-2-thienyl)-N-methylbenzamide], the Ki is 87.6 nM.

`CC(C)(C(=O)Nc1nncs1)[C@H](c1cccc(F)c1)c1ccc(-c2ccc(C(=O)O)c(F)c2)s1` [Example 63, 2-fluoro-4-(5-((1S)-1-(3-fluorophenyl)-2,2-dimethyl-3-oxo-3-(1,3,4-thiadiazol-2-ylamino)propyl)-2-thienyl)benzoic acid]: the Ki amounted to 565 nM.

For the compound `CCN(CC)C(=O)c1ccc(-c2ccc([C@H](c3cccc(F)c3)C(C)(C)C(=O)Nc3nncs3)s2)cc1` [Example 69, N,N-diethyl-4-(5-((1R)-1-(3-fluorophenyl)-2,2-dimethyl-3-oxo-3-(1,3,4-thiadiazol-2-ylamino)propyl)-2-thienyl)benzamide], the Ki turned out to be 1.03 nM.

`CC(C)(C(=O)Nc1nncs1)[C@@H](c1cccc(F)c1)c1ccc(-c2ccc(C(=O)N3CCCCC3)cc2)s1` [Example 71, (3R)-3-(3-fluorophenyl)-2,2-dimethyl-3-(5-(4-(1-piperidinylcarbonyl)phenyl)-2-thienyl)-N-1,3,4-thiadiazol-2-ylpropanamide]: the Ki was determined as 1.51 nM.

Regarding `CCCN(CCC)C(=O)c1ccc(-c2ccc([C@H](c3cccc(F)c3)C(C)(C)C(=O)Nc3nncs3)s2)cc1` [Example 72, 4-(5-((1R)-1-(3-fluorophenyl)-2,2-dimethyl-3-oxo-3-(1,3,4-thiadiazol-2-ylamino)propyl)-2-thienyl)-N,N-dipropylbenzamide], the Ki is 29.8 nM.

Consider `CCNC(=O)c1ccc(-c2ccc([C@H](c3cccc(F)c3)C(C)(C)C(=O)Nc3nncs3)s2)cc1` [Example 73, N-ethyl-4-(5-((1R)-1-(3-fluorophenyl)-2,2-dimethyl-3-oxo-3-(1,3,4-thiadiazol-2-ylamino)propyl)-2-thienyl)benzamide], for which the Ki is 6.13 nM.

Take `CC(C)(C(=O)Nc1nncs1)[C@@H](c1cccc(F)c1)c1ccc(-c2ccc(C(N)=O)cc2)s1` [Example 74, 4-(5-((1R)-1-(3-fluorophenyl)-2,2-dimethyl-3-oxo-3-(1,3,4-thiadiazol-2-ylamino)propyl)-2-thienyl)benzamide]: the Ki stood at 2.24 nM.

The record behind these values is patent US8222247B2, “Modulators of glucocorticoid receptor, AP-1, and/or NF-kappabeta activity and use thereof” (Bristol-Myers Squibb Company, priority 2006, dated 2012).
